Results reported in patent US5877174A, “2,3-diketopiperazine derivatives or their salts” (Toyama Chemical Co., Ltd., priority 1994, dated 1999).
Counter-ions that a name gives are not always drawn.

These molecules were tested on human platelet aggregation (assay: Inhibitory effect on human platelet aggregation (ADP-induced, platelet-rich plasma, aggreometer)). Conditions: 5×10^8 platelets/ml, ADP final concentration 3 μM, 37° C., 3 min preincubation, read-out: 50% inhibitory concentration (IC50).
Format: cell-based
Experimental: A mixture of blood collected from a human elbow vein and a 3.8% sodium citrate solution in the ratio of 9:1 (v/v) was centrifuged at room temperature to obtain platelet-rich plasma and platelet-poor plasma. Then, the platelet-rich plasma was diluted with the platelet-poor plasma to adjust the number of platelets to 5×10^8 platelets/ml. […] After 3 minutes, 18.75 μl of adenosine 5'-diphosphate (ADP) (final concentration: 3 μM) was added to the mixture and a change in the intensity of transmitted light caused by the aggregation was recorded with the lapse of time with an aggreometer.

SMILES | IC50
N=C(N)c1ccc(OCCCN2CCN(CC(=O)O)C(=O)C2=O)cc1 [Example 10, [4-[3-(4-Amidinophenoxy)propyl]-2,3-dioxopiperazin-1yl]acetic acid hydrochloride] | 5000 nM
N=C(N)c1ccc(OCCCCCN2CCN(CC(=O)O)C(=O)C2=O)cc1 [Example 13] | 10000 nM
N=C(N)c1ccc(OCCCn2ccn(CC(=O)O)c(=O)c2=O)cc1 [Example 17, [4-[3-(4-Amidinophenoxy)propyl]-1,2,3,4-tetrahydro-2,3-dioxopyrazin-1-yl]acetic acid hydrochloride] | 42000 nM
N=C(N)c1ccc(OCCCN2CCN(CC(Cc3ccc4c(c3)OCO4)C(=O)O)C(=O)C2=O)cc1 (stereo not shown) [Example 20, 2-[(1,3-Benzodioxol-5-yl)methyl]-3-[4-[3-(4-amidinophenoxy)propyl]-2,3-dioxopiperazin-1-yl]propionic acid] | 900 nM
N=C(N)c1ccc(OCCCN2CCN(C(CC(=O)O)c3cccnc3)C(=O)C2=O)cc1 (stereo not shown) [Example 58, 3-[4-[3-(4-Amidinophenoxy)propyl]-2,3-dioxopiperazin-1-yl]-3-(pyridin-3-yl)propionic acid] | 54 nM
CC(CC(=O)O)N1CCN(CCCOc2ccc(C(=N)N)cc2)C(=O)C1=O (stereo not shown) [Example 59, 3-[4-[3-(4-Amidinophenoxy)propyl]-2,3-dioxopiperazin-1-yl]-3-methylpropionic acid] | 370 nM
N=C(N)c1ccc(OCCCN2CCN(C(CC(=O)O)C(=O)O)C(=O)C2=O)cc1 (stereo not shown) [Example 62, 2-[4-[3-(4-Amidinophenoxy)propyl]-2,3-dioxopiperazin-1-yl]succinic acid] | 3200 nM
COc1ccc(C(CC(=O)O)N2CCN(CCCOc3ccc(C(=N)N)cc3)C(=O)C2=O)cc1 (stereo not shown) [Example 64] | 160 nM
N=C(N)c1ccc(OCCCN2CCN(C(CC(=O)O)c3ccc(F)cc3)C(=O)C2=O)cc1 (stereo not shown) [Example 65] | 290 nM
N=C(N)c1ccc(OCCCN2CCN(C(CC(=O)O)c3ccc(F)cc3F)C(=O)C2=O)cc1 (stereo not shown) [Example 77] | 140 nM
CCCCC(CC(=O)O)N1CCN(CCCOc2ccc(C(=N)N)cc2)C(=O)C1=O (stereo not shown) [Example 82, 3-[4-[3-(4-Amidinophenoxy)propyl]-2,3-dioxopiperazin-1-yl]-3-(butyl)propionic acid] | 480 nM
N=C(N)c1ccc(OCCCN2CCN(C(CC(=O)O)c3cccc4ccccc34)C(=O)C2=O)cc1 (stereo not shown) [Example 85] | 290 nM
N=C(N)c1ccc(OCCCN2CCN(CC(C(=O)O)c3ccccc3)C(=O)C2=O)cc1 (stereo not shown) [Example 87, 3-[4-[3-(4-Amidinophenoxy)propyl]-2,3-dioxopiperazin-1-yl]-2-phenylpropionic acid] | 530 nM
CCOC(=O)CC(c1cccnc1)N1CCN(CCCOc2ccc(C(=N)N)cc2)C(=O)C1=O (stereo not shown) [Example 88, Ethyl 3-[4-[3-(4-amidinophenoxy)propyl]-2,3-dioxopiperazin-1yl]-3-(pyridin-3-yl)propionate hydrochloride] | 3400 nM
N=C(N)c1ccc(C(=O)NCCN2CCN(CCC(=O)O)C(=O)C2=O)cc1 [Example 99] | 2100 nM
N=C(N)c1ccc(C(=O)NCCCN2CCN(CC(Cc3ccc4c(c3)OCO4)C(=O)O)C(=O)C2=O)cc1 (stereo not shown) [Example 102, 3-[4-[3-(4-Amidinobenzoylamino)propyl]-2,3-dioxopiperazin-1-yl]-2-[(1,3-benzodioxol-5-yl)methyl]-propionic acid] | 500 nM
CC(C)(C)OC(=O)CN1CCN(CCCC(=O)Nc2ccc(C(=N)NC(=O)OCc3ccccc3)cc2)C(=O)C1=O [Example 106, tert-Butyl [4-[4-(4-benzyloxycarbonylamidino-phenylamino) -4-oxobutyl]-2,3-dioxopiperazin-1-yl]acetate] | 1000 nM

The remaining molecules from weak to strong by IC50, led by results:

IC50 | SMILES
4700 nM | N=C(N)c1ccc(OCCCN2CCN(CCC(=O)O)C(=O)C2=O)cc1 [Example 15]
3500 nM | N=C(N)c1ccc(OCCCCN2CCN(C(CC(=O)O)c3cccnc3)C(=O)C2=O)cc1 (stereo not shown) [Example 79, 3-[4-[4-(4-Amidinophenoxy)butyl]-2,3-dioxopiperazin-1-yl]-3-(pyridin-3-yl)propionic acid]
2200 nM | N=C(N)c1ccc(OCCN2CCN(CCCC(=O)O)C(=O)C2=O)cc1 [Example 16]
1900 nM | N=C(N)c1ccc(C(=O)NCCN2CCN(CC(=O)O)C(=O)C2=O)cc1 [Example 103, [4-[2-(4-Amidinobenzoylamino)ethyl]-2,3-dioxopiperazin-1-yl]acetic acid]
1100 nM | N=C(N)c1ccc(OCCCN2CCN(C(CC(=O)O)C3CC3)C(=O)C2=O)cc1 (stereo not shown) [Example 83, 3-[4-[3-(4-Amidinophenoxy)propyl]-2,3-dioxopiperazin-1-yl]-3-(cyclopropyl)propionic acid]
950 nM | N=C(N)c1ccc(S(=O)(=O)NCCCN2CCN(CC(=O)O)C(=O)C2=O)cc1 [105(2), [4-[3-(4-Amidinobenzenesulfonylamino)propyl]-2,3-dioxopiperazin-1-yl]aceticacid]
800 nM | N=C(N)c1ccc(C(=O)NCCCN2CCN(CC(=O)O)C(=O)C2=O)cc1 [Example 104, [4-[3-(4-Amidinobenzoylamino)propyl)-2,3-dioxopiperazin-1-yl]acetic acid]
570 nM | N=C(N)c1ccc(OCCCN2CCN(C(CC(=O)O)c3ccco3)C(=O)C2=O)cc1 (stereo not shown) [Example 67]
560 nM | N=C(N)c1ccc(C(=O)NCCN2CCN(C(CC(=O)O)c3cccnc3)C(=O)C2=O)cc1 (stereo not shown) [Example 97, 3-[4-[2-(4-Amidinobenzoyl)aminoethyl]-2,3-dioxopiperazin-1yl]-3-(pyridin-3-yl)propionic acid]
150 nM | COc1cccc(C(CC(=O)O)N2CCN(CCCOc3ccc(C(=N)N)cc3)C(=O)C2=O)c1 (stereo not shown) [Example 78]
140 nM | N=C(N)c1ccc(OCCCCN2CCN(C(C(=O)O)c3ccccc3)C(=O)C2=O)cc1 (stereo not drawn) [Example 19, α-[4-[4-(4-Amidinophenoxy)butyl]-2,3-dioxopiperazin-1yl]-α-phenylacetic acid]
140 nM | N=C(N)c1ccc(OCCCN2CCN(C(CC(=O)O)c3ccc4c(c3)OCO4)C(=O)C2=O)cc1 (stereo not shown) [Example 66, 3-[4-[3-(4-Amidinophenoxy)propyl]-2,3-dioxopiperazin-1-yl]-3-(1,3-benzodioxol-5-yl)propionic acid]
120 nM | N=C(N)c1ccc(OCCCN2CCN(C(CC(=O)O)c3cccs3)C(=O)C2=O)cc1 (stereo not shown) [Example 61]

The molecules below were run on ddY strain male mice (assay: Acute toxicity (intravenous, mice)). Conditions: 300 mg/kg, intravenous (tail), physiological saline.
Format: in vivo
Experimental: A solution of the compound of Example 58 in physiological saline was intravenously administered to a group consisting of 5 ddY strain male mice (average body weight: 27.5 g) each, in the tails, whereby the acute toxicity of the compound was investigated. As a result, no mouse died at a dose of the test compound of 300 mg/kg.

SMILES | acute toxicity (mortality)
N=C(N)c1ccc(OCCCN2CCN(C(CC(=O)O)c3cccnc3)C(=O)C2=O)cc1 (stereo not shown) [Example 58, 3-[4-[3-(4-Amidinophenoxy)propyl]-2,3-dioxopiperazin-1-yl]-3-(pyridin-3-yl)propionic acid] | no mouse died
